Drawing on patent US20190375708A1 (VenatoRx Pharmaceuticals, Inc., priority 2018, published 2019), this text covers CC50 and EC50 for 25 compounds.

pEC50: −log10 of the molar value. A value given as a limit tells only on which side of the number the result lay.

A short description of data set [1]: In vitro cytotoxicity assay (MTT cell viability) in HepG2 cells. To be noted: human. It counts as cell-based, human. An outline of the steps:
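Read-out: MTT formazan absorbance at 492 nm, expressed as % of vehicle signal; CC50 by 4-parameter non-linear regression. Parental HepG2, 20,000 cells/well, treated 7 days with compound from 30 μM down to 1.0 nM.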

Data set [2] concerns HBV replication in HepAD38 cells. Description: Anti-HBV replication assay in HepAD38 cells (QPCR of extracellular HBV DNA). It counts as cell-based, HBV (genotype D, serotype ayw). To be noted: Hepatitis B virus, 168 h, 7 days incubation, extracellular HBV DNA by QPCR, read-out: Anti-HBV EC50. Summed up: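 Compounds (1 log10 serial dilutions, […]) were left 7 days on tetracycline-free HepAD38 cultures, a HepG2 line with tet-controlled HBV genotype D. EC50 came from 4-parameter regression of percent inhibition versus vehicle, using supernatant HBV DNA copies/mL measured by QPCR.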

Usually CC50 stands for the concentration giving 50% cytotoxicity. High values mean lower toxicity to the cells, low ones greater toxicity to the cells. What is called pEC50 is the EC50 on a negative log10 scale, so that one unit is a factor of ten. In data set [1], `Cc1cc(NC(=O)c2c(C)c(C(=O)C(=O)NC(C)(C)CCO)n(C)c2C)ccc1F` [Example 11, N-(4-fluoro-3-methylphenyl)-5-(2-((4-hydroxy-2-methylbutan-2-yl)amino)-2-oxoacetyl)-1,2,4-trimethyl-1H-pyrrole-3-carboxamide] gave a CC50 at 7 days of over 30000 nM. In data set [2], the pEC50 is over 7.30.
In the same order, the values of `Cc1cc(NC(=O)c2c(C)c(C(=O)C(=O)N[C@@H]3CC[C@@H](O)[C@@H]3O)n(CCF)c2C)ccc1F` [Example 197] are over 30000 nM and 6.30 to 7.30.
In turn, `COC(=O)[C@H](NC(=O)C(=O)c1c(C)c(C(=O)Nc2ccc(F)c(C)c2)c(C)n1C)[C@@H](C)O` [Example 46, methyl (2-(4-((4-fluoro-3-methylphenyl)carbamoyl)-1,3,5-trimethyl-1H-pyrrol-2-yl)-2-oxoacetyl)-D-allothreoninate] gave a CC50 at 7 days in data set [1] of over 30000 nM. The negative-log EC50 (pEC50) in data set [2] is over 7.30.
In the same order, the values of `Cc1c(C(=O)Nc2ccc(F)c(Cl)c2)c2n(c1C(=O)C(=O)N[C@H]1C[C@H](O)C1)CCCC2` [Example 449, N-(3-chloro-4-fluorophenyl)-3-(2-(((1r,3r)-3-hydroxycyclobutyl)amino)-2-oxoacetyl)-2-methyl-5,6,7,8-tetrahydroindoliziine-1-carboxamide] are over 30000 nM and 6.30 to 7.30.
The compound `Cc1cc(NC(=O)c2c(C)c(C(=O)C(=O)N[C@H](C(N)=O)C(C)(C)C)n(C)c2C)ccc1F` [Example 39, (S)-5-(2-((1-amino-3,3-dimethyl-1-oxobutan-2-yl)amino)-2-oxoacetyl)-N-(4-fluoro-3-methylphenyl)-1,2,4-trimethyl-1H-pyrrole-3-carboxamide] showed a half-maximal cytotoxic concentration (CC50) at 7 days in data set [1] of over 30000 nM. For the same compound, the negative logarithm of the EC50 (pEC50) in data set [2] was 6.00 to 6.30.
For the compound `Cc1c(C(=O)Nc2ccc(F)nc2)c(C)n(C)c1C(=O)C(=O)NC1CCc2nc(N)sc2C1` (centres unmarked) [Example 77, 5-(2-((2-amino-4,5,6,7-tetrahydrobenzo[d]thiazol-6-yl)amino)-2-oxoacetyl)-N-(6-fluoropyridin-3-yl)-1,2,4-trimethyl-1H-pyrrole-3-carboxamide], the CC50 at 7 days in data set [1] was over 30000 nM. Moreover, the negative logarithm of the EC50 (pEC50) in data set [2] is 6.30 to 7.30.
In the same order, the values of `Cc1csc(NC(=O)C(=O)c2c(C)c(C(=O)Nc3ccc(F)c(F)c3)c(C)n2C)n1` [Example 315, N-(3,4-difluorophenyl)-1,2,4-trimethyl-5-(2-((4-methylthiazol-2-yl)amino)-2-oxoacetyl)-1H-pyrrole-3-carboxamide] are over 30000 nM and over 7.30.
Consider `CC[C@@H](CO)NC(=O)C(=O)c1c(C)c(C(=O)Nc2ccc(F)c(C)c2)c(C)n1C` [Example 139, (S)-N-(4-fluoro-3-methylphenyl)-5-(2-((1-hydroxybutan-2-yl)amino)-2-oxoacetyl)-1,2,4-trimethyl-1H-pyrrole-3-carboxamide], for which the CC50 at 7 days in data set [1] was over 30000 nM. Moreover, the pEC50 in data set [2] is over 7.30.
In the same order, the values of `Cc1c(C(=O)Nc2ccn(C)n2)c2n(c1C(=O)C(=O)NC1(CO)CCC1)CCCC2` [Example 748, 3-(2-((1-(hydroxymethyl)cyclobutyl)amino)-2-oxoacetyl)-2-methyl-N-(1-methyl-1H-pyrazol-3-yl)-5,6,7,8-tetrahydroindolizine-1-carboxamide] are over 30000 nM and 6.30 to 7.30.
In the same order, the values of `Cc1nnc(C(C)NC(=O)C(=O)c2c(C)c(C(=O)Nc3ccc(F)c(C)c3)c(C)n2C)o1` (centres unmarked) [Example 181, N-(4-fluoro-3-methylphenyl)-1,2,4-trimethyl-5-(2-((1-(5-methyl-1,3,4-oxadiazol-2-yl)ethyl)amino)-2-oxoacetyl)-1H-pyrrole-3-carboxamide] are over 30000 nM and over 7.30.
In the same order, the values of `Cc1c(C(=O)Nc2ccc(F)cc2)c(C)n(C)c1C(=O)C(=O)N[C@H](C)C(F)(F)F` [Example 725, (R)-N-(4-fluorophenyl)-1,2,4-trimethyl-5-(2-oxo-2-((1,1,1-trifluoropropan-2-yl)amino)acetyl)-1H-pyrrole-3-carboxamide] are over 30000 nM and over 7.30.
`CC(=O)N1CCC[C@@H](NC(=O)C(=O)c2c(C)c(C(=O)Nc3ccc(F)c(C)c3)c(C)n2C)C1` [Example 639, (R)-5-(2-((1-acetylpiperidin-3-yl)amino)-2-oxoacetyl)-N-(4-fluoro-3-methylphenyl)-1,2,4-trimethyl-1H-pyrrole-3-carboxamide] yielded a cytotoxic concentration (CC50) at 7 days in data set [1] of over 30000 nM. In data set [2], the negative logarithm of the EC50 (pEC50) was over 7.30.
Consider `Cc1cc(NC(=O)c2c(C)c(C(=O)C(=O)NC3(C)CC[C@@H](O)[C@@H](O)C3)n(C)c2C)ccc1F` (stereo partly drawn) [Example 702, 5-(2-(((3S,4R)-3,4-dihydroxy-1-methylcyclohexyl)amino)-2-oxoacetyl)-N-(4-fluoro-3-methylphenyl)-1,2,4-trimethyl-1H-pyrrole-3-carboxamide], for which the 50% cytotoxic concentration (CC50) at 7 days in data set [1] was over 30000 nM. Further, in data set [2], the pEC50 was over 7.30.
In the same order, the values of `Cc1cc(NC(=O)c2c(C)c(C(=O)C(=O)NC3(C)CCS(=O)(=O)CC3)n(C)c2C)ccc1F` [Example 622, N-(4-fluoro-3-methylphenyl)-1,2,4-trimethyl-5-(2-((4-methyl-1,1-dioxidotetrahydro-2H-thiopyran-4-yl)amino)-2-oxoacetyl)-1H-pyrrole-3-carboxamide] are over 30000 nM and over 7.30.
The compound `Cc1cc(NC(=O)c2cc(C(=O)C(=O)NC(C)(C)CO)n3c2CCC3)ccc1F` [Example 537, N-(4-fluoro-3-methylphenyl)-5-(2-((1-hydroxy-2-methylpropan-2-yl)amino)-2-oxoacetyl)-2,3-dihydro-1H-pyrrolizine-7-carboxamide] showed a cytotoxic concentration (CC50) at 7 days in data set [1] of over 30000 nM. Further, the negative-log EC50 (pEC50) in data set [2] was 6.30 to 7.30.
`Cc1cc(NC(=O)c2c(C)c(C(=O)C(=O)NC3(CO)CC(F)(F)C3)n3c2CCCC3)ccc1F` [Example 441, 3-(2-((3,3-difluoro-1-(hydroxymethyl)cyclobutyl)amino)-2-oxoacetyl)-N-(4-fluoro-3-methylphenyl)-2-methyl-5,6,7,8-tetrahydroindolizine-1-carboxamide] came in with a CC50 at 7 days in data set [1] of 5000 to 30000 nM. In addition, the negative logarithm of the EC50 (pEC50) in data set [2] is over 7.30.
Taken in the same sequence, the figures for `O=C(N[C@H]1COC[C@@H]1O)C(=O)c1c(Cl)c(C(=O)Nc2ccc(F)c(Cl)c2)c2n1CCC2` [Example 563, 6-chloro-N-(3-chloro-4-fluorophenyl)-5-(2-(((3S,4R)-4-hydroxytetrahydrofuran-3-yl)amino)-2-oxoacetyl)-2,3-dihydro-1H-pyrrolizine-7-carboxamide] were 5000 to 30000 nM and over 7.30.
Taken in the same sequence, the figures for `CC(C)(CO)CNC(=O)C(=O)c1c(Cl)c(C(=O)Nc2ccc(F)c(Cl)c2)c2n1CCC2` [Example 556, 6-chloro-N-(3-chloro-4-fluorophenyl)-5-(2-((3-hydroxy-2,2-dimethylpropyl)amino)-2-oxoacetyl)-2,3-dihydro-1H-pyrrolizine-7-carboxamide] were 5000 to 30000 nM and 6.30 to 7.30.
In the case of `Cc1cc(NC(=O)c2c(C)c(C(=O)C(=O)N[C@@H](C(N)=O)[C@@H](C)O)n(C)c2C)ccc1F` [Example 61, 5-(2-(((2R,3R)-1-amino-3-hydroxy-1-oxobutan-2-yl)amino)-2-oxoacetyl)-N-(4-fluoro-3-methylphenyl)-1,2,4-trimethyl-1H-pyrrole-3-carboxamide], the cytotoxic concentration (CC50) at 7 days in data set [1] was over 30000 nM. In addition, the negative logarithm of the EC50 (pEC50) in data set [2] is 6.30 to 7.30.
Compound `Cc1cc(NC(=O)c2c(C)c(C(=O)C(=O)N[C@@H]3CCc4nc(N)sc4C3)n(C)c2C)ccc1F` [Example 76, (R)-5-(2-((2-amino-4,5,6,7-tetrahydrobenzo[d]thiazol-6-yl)amino)-2-oxoacetyl)-N-(4-fluoro-3-methylphenyl)-1,2,4-trimethyl-1H-pyrrole-3-carboxamide] gave a cytotoxic concentration (CC50) at 7 days in data set [1] of 5000 to 30000 nM. Moreover, in data set [2], the negative-log EC50 (pEC50) was over 7.30.
In the same order, the values of `Cc1c(C(=O)NC2CCC(F)(F)C2)c2n(c1C(=O)C(=O)NC1(CO)CCC1)CCCC2` (centres unmarked) [Example 744, N-(3,3-difluorocyclopentyl)-3-(2-((1-(hydroxymethyl)cyclobutyl)amino)-2-oxoacetyl)-2-methyl-5,6,7,8-tetrahdyroindolizine-1-carboxamide] are over 30000 nM and 6.30 to 7.30.
As to `Cc1cc(NC(=O)c2c(C)c(C(=O)C(=O)NC3(C(N)=O)CC3)n(C)c2C)ccc1F` [Example 37, 5-(2-((1-carbamoylcyclopropyl)amino)-2-oxoacetyl)-N-(4-fluoro-3-methylphenyl)-1,2,4-trimethyl-1H-pyrrole-3-carboxamide], the 50% cytotoxic concentration (CC50) at 7 days in data set [1] is over 30000 nM. In addition, the negative logarithm of the EC50 (pEC50) in data set [2] is over 7.30.
Taken in the same sequence, the figures for `CO[C@H]1CC[C@@H](NC(=O)C(=O)c2c(C)c(C(=O)Nc3ccc(F)c(C)c3)c(C)n2C)CC1` [Example 268, N-(4-fluoro-3-methylphenyl)-5-(2-(((1s,4s)-4-methoxycyclohexyl)amino)-2-oxoacetyl)-1,2,4-trimethyl-1H-pyrrole-3-carboxamide] were 5000 to 30000 nM and over 7.30.
In turn, `Cc1cc(NC(=O)c2c(C)c(C(=O)C(=O)N[C@H]3CC[C@@H](CO)CC3)n(C)c2C)ccc1F` [Example 676, N-(4-fluoro-3-methylphenyl)-5-(2-(((1s,4s)-4-(hydroxymethyl)cyclohexyl)amino)-2-oxoacetyl)-1,2,4-trimethyl-1H-pyrrole-3-carboxamide] had a 50% cytotoxic concentration (CC50) at 7 days in data set [1] of over 30000 nM. In addition, the pEC50 in data set [2] is over 7.30.
Consider `Cc1c(C(=O)Nc2ccc(F)c(F)c2)c2n(c1C(=O)C(=O)NC1(c3nn[nH]n3)CCCC1)CCCC2` [Example 743, 3-(22-((1-(2H-tetrazol-5-yl)cyclopentyl)amino)-2-oxoacetyl)-N-(3,4-difluorophenyl)-2-methyl-5,6,7,8-tetrahydroindolizine-1-carboxamide], for which the CC50 at 7 days in data set [1] was over 30000 nM. The pEC50 in data set [2] is 6.30 to 7.30.
